Source: PMC7438500 (Nature Communications, 2020)
Entries after “also recorded” stand apart in the source; their conditions may differ.

Tests used:
ghrelin receptor WT = target: T1, ghrelin receptor WT (Homo sapiens, UniProt Q92847, N188Q); test: [3H]-Compound 21 saturation binding, WT; conditions: HEK293 membranes, on ice 1 h, pH7.5; mean ± s.d., three independent experiments
T1 construct: Full-length human ghrelin receptor was used for the mutagenesis; expressed in transfected cells
Experimental: (§1) The homogenate was ultracentrifuged at 100,000×g for 30 min at 4 °C, and the pellet was washed twice with cold homogenization buffer. The protein concentration was determined using BCA Protein Assay (Thermo Fisher). […] Bound [^3H]-Compound 21 was quantified with an AccuFLEX LCS-8000 liquid scintillation counter (Hitachi) after addition of 2.5 ml of Clear-Sol liquid scintillation cocktail (Nacalai Tesque). Data were analyzed by nonlinear curve-fitting using the program GraphPad Prism 5. Binding data are reported as means ± s.d.

ghrelin receptor [1] = target: T2, ghrelin receptor (Homo sapiens, UniProt Q92847); test: Crystal structure of bRIL-hGHSR-Fab 7881-Compound 21 complex; conditions: 3.3 Å resolution, PDB 6KO5
T2 construct: expressed in transfected cells; host or cells: HEK293 cells (membrane preparations, transient expression)
Experimental: The complex was purified by gel filtration using Superdex 200 Increase 10/300 GL. […] In the mixture, the protein solution:lipid mass ratio was fixed at 2:3 using the twin-syringe mixing method. Crystallization experiments were carried out in 96-well glass sandwich plates (Molecular Dimensions) on an NT8-LCP crystallization robot (Formulatrix) using a 30 nl protein solution cubic phase overlaid with 600 nl precipitant solution, and incubated at 20 °C. The best crystals were obtained from precipitant solution containing 100 mM MES (pH 6.6–7.0), 400 mM potassium acetate, and 36–40% polyethylene glycol (PEG) 300. The crystals were collected within 2 weeks using mesh grid loops (WAKENBTECH) and flash-cooled in liquid nitrogen. Initial crystals were obtained in hanging drops by vapor diffusion at 20 °C from the precipitant solution containing 100 mM bicine (pH 9.0), 100 mM sodium chloride, and 30% PEG550MME.
All diffraction datasets were collected at SPring-8 BL32XU[42] using a micro-focused X-ray beam. Loop-harvested microcrystals were identified using raster scan and analysis by SHIKA[43]. […] The structure was determined by molecular replacement with the program PHASER[47], using the receptor portions of the antagonist-bound orexin receptor (PDB ID: 4S0V), bRIL (PDB ID: 1M6T), and the Fab 7881 antibody (this study, ID: 6KS2) as the search models. […]

[2] = target: ghrelin receptor crystallization construct (hGHSR29-346 (T130K/N188Q)); test: [3H]-Compound 21 saturation binding, crystallization construct; parameters: species or system human; conditions: Sf9 membranes, 3.125–50 nM radioligand, on ice 1 h, pH7.5; mean ± s.d.
Experimental: as §1

[3] = tested on: ghrelin receptor WT (hGHSR WT); test: Luciferase assay, basal (constitutive) activity in presence of Compound 21; assay type: cell-based, human; conditions: CHO cells, 10^-10 to 10^-6 M Compound 21, 1 h; n=5–6
Experimental: Transfections were performed using the FuGENE HD transfection reagent (Promega). The next day, the transfected cells were collected and plated into 96-well white microplates (Corning) at a density of 2.5 × 10^4 cells/well. After a 1-day incubation, the luciferase activities were determined using Dual-Luciferase Reporter Assay System (Promega). […] All firefly luciferase activities were normalized against Renilla luciferase activity. All experiments were performed in sextuplicate.

ghrelin receptor D99A = test: Intracellular Ca2+ concentration assay, D99A; assay type: cell-based, human; conditions: Fig. 4a
Experimental: (§2) The positions of mutated amino acids and primers are listed in Supplementary Table 2.
(§3) Transfections were performed using the FuGENE HD transfection reagent (Promega). The next day, the transfected cells were collected and plated into 96-well black-wall assay microplates (Corning) at a density of 3 × 10^4 cells/well. After a 1-day incubation, the cells were incubated for 1 h with 100 μl of calcium indicator Fluo-4 from the FLIPR Calcium 5 Assay Kit (Molecular Devices) in Hank’s BSS containing 20 mM HEPES-NaOH (pH7.5) and 2.5 mM probenecid. Fifty-microliter aliquots of samples were tested to induce changes in fluorescence due to increased calcium concentration on a FlexStation3 (Molecular Devices). Maximum [Ca^2+]i changes were determined in quadruplicate (n = 4).

ghrelin receptor R283A = test: Intracellular Ca2+ concentration assay, R283A; assay type: cell-based, human; conditions: Fig. 4d
Experimental: as §2, §3

ghrelin receptor R102A = test: Intracellular Ca2+ concentration assay, R102A; assay type: cell-based, human; conditions: Fig. 4b
Experimental: as §2, §3

ghrelin receptor E124A = test: Intracellular Ca2+ concentration assay, E124A; assay type: cell-based, human; conditions: Fig. 4c
Experimental: as §2, §3

ghrelin receptor F286A = tested on: T3, ghrelin receptor F286A; test: Intracellular Ca2+ concentration assay, F286A; assay type: cell-based, human; conditions: Fig. 4f
T3 construct: Full-length human ghrelin receptor was used for the mutagenesis; expressed in transfected cells; host or cells: CHO cells
Experimental: as §2, §3

[4] = peripheral injection; ref [3]; cited from earlier work
ghrelin receptor [5] = conditions: cited from earlier work
From the text: No other peptide hormone is known to require such an acyl-modification for its activity.

bRIL-hGHSR = test: Protein thermostability assay (CPM); assay type: biochemical, human; conditions: Compound 21 present in both samples
Experimental: The thermal stability analysis was performed with the thiol-specific fluorochrome N-[4-(7-diethylamino-4-methyl-3-coumarinyl)phenyl]maleimide (CPM)[40]. CPM at 4 mg ml^−1 in DMSO was diluted 40-fold into buffer containing 20 mM HEPES-NaOH (pH 7.5), 100 mM NaCl, 0.01% LMNG, and 0.001% CHS. Purified protein (20 µg) was mixed with diluted CPM and incubated on ice for 15 min in darkness. The reaction mixture (20 µl) was heated in a controlled manner with a ramp rate of 3 °C min^−1 in a MyiQ2 thermal cycler (Bio-Rad). […] Assays were performed over a temperature range starting from 4 °C and ending at 80 °C. The peak in the derivative of the fluorescence signal was used to determine the melting temperature.

T2 sequence (Q92847 whole entry): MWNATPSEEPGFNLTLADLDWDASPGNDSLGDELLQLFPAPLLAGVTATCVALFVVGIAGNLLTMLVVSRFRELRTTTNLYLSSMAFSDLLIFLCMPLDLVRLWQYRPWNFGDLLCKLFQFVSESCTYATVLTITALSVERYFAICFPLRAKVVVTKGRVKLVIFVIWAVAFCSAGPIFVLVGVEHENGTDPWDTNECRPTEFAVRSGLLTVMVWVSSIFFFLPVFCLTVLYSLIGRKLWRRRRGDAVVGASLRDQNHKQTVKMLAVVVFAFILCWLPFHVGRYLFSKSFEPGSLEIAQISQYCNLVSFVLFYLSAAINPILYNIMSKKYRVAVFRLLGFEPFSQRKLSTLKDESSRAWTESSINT
T1 sequence (Q92847 whole entry N188Q): as the sequence (Q92847 whole entry) above, with N188Q counted along it

Cc1nc2ccc(Oc3ccc(Br)cc3F)nc2c(=O)n1CC1CCCN(C(C)C)C1 (centres unmarked) [Compound 21]
Kd (ghrelin receptor WT): 4.42 ± 0.76 nM
interaction seen in crystal structure (ghrelin receptor [1]): forms a hydrogen bond with R283^6.55; also recorded: π–cation interaction with R102^2.63; also recorded: forms hydrophobic interactions with the F279^6.51, F309^7.39, and F312^7.42; also recorded: three hydrophobic contacts with residues I178^4.60, L181^4.63, and M213^5.39
Kd [2]: 17.2 ± 7.1 nM
effect on constitutive activity [3]: no effect on the constitutive activity; also recorded: neutral antagonist

CCCCCCCC(=O)OC[C@H](NC(=O)[C@H](CO)NC(=O)CN)C(=O)N[C@@H](Cc1ccccc1)C(=O)N[C@@H](CC(C)C)C(=O)N[C@@H](CO)C(=O)N1CCC[C@H]1C(=O)N[C@@H](CCC(=O)O)C(=O)N[C@@H](Cc1c[nH]cn1)C(=O)N[C@@H](CCC(N)=O)C(=O)N[C@@H](CCCNC(=N)N)C(=O)N[C@H](C(=O)N[C@@H](CCC(N)=O)C(=O)N[C@@H](CCC(N)=O)C(=O)N[C@@H](CCCNC(=N)N)C(=O)N[C@@H](CCCCN)C(=O)N[C@@H](CCC(=O)O)C(=O)N[C@@H](CO)C(=O)N[C@@H](CCCCN)C(=O)N[C@@H](CCCCN)C(=O)N1CCC[C@H]1C(=O)N1CCC[C@H]1C(=O)N[C@@H](C)C(=O)N[C@@H](CCCCN)C(=O)N[C@@H](CC(C)C)C(=O)N[C@@H](CCC(N)=O)C(=O)N1CCC[C@H]1C(=O)N[C@@H](CCCNC(=N)N)C(=O)O)C(C)C [Ghrelin]
receptor activity (ghrelin receptor D99A): abolishes the receptor activity
ghrelin-induced receptor function (ghrelin receptor R283A): completely abolished ghrelin-induced receptor function
receptor activity (ghrelin receptor R102A): abolishes the receptor activity
ghrelin-induced receptor function (ghrelin receptor E124A): completely abolished ghrelin-induced receptor function
ghrelin-induced receptor activity (ghrelin receptor F286A): only slightly lower than that of the WT ghrelin receptor
appetite [4]: induces appetite stimulation following peripheral injection

des-acyl ghrelin
activity of ghrelin forms (ghrelin receptor [5]; ref [2],[5]): inactive

n-octanoyl ghrelin
potency of ghrelin forms (ghrelin receptor [5]; reference not given): most potent active form

B1: Fab 7881: Fab fragment antibody specific for the ghrelin receptor, binds ICL3 (antibody, V domains shown)
VH: EVQLQQSGAELVRPGASVKLSCKASGYTFTDYEMHWVKQTPVHGLEWIGAIDPETGGTVYNQKFKGKATLTADISSTTAYMELRSLTSEDSAVYFCISEDIDESKDYWGQGTTLTVSS
VL: DIVMTQSPSSLAVSAGEKVTLSCKSSQSLFNSRTRKNYLAWYQQKPGLSPTLLIYWASTRKSGVPDRFTGSGSGTDFTLTITSVQAEDLAVYYCKQSYYLRTFGGGTKLEIK
increase of Tm (bRIL-hGHSR): about 5 °C
interaction seen in crystal structure (ghrelin receptor [1]): binds to intracellular loop 3 (ICL3)
